Like-named read-outs stand apart in the source and are kept apart here.
Key:
[1] = Plasma half-life (i.v./i.p. pharmacokinetics, Table 23); format: in vivo, Rats; details: rat; for Cmax at 30 min: 30 m; for AUC(0-t): read-out: AUC (0-last h) i.v. XMPK
Protocol: Animals were fasted overnight prior to dose administration and food returned to the animals two hours after dosing. Following IV dosing, blood samples (ca 200 μL) were collected into separate tubes containing anticoagulant (K-EDTA) via the orbital plexus at various times post administration. Plasma samples were prepared immediately after collection by centrifugation for ten minutes using a tabletop centrifuge, and stored at −80° C. Brain tissue was weighed, homogenized on ice in 50 mM phosphate buffer (2 ml per brain) and the homogenate stored at −80° C. Plasma and brain homogenate samples were extracted by the addition of 5 volumes of cold acetonitrile, mixed well by vortexing and centrifuged at 4000 rpm for 15 minutes. The supernatant fractions were analyzed by LC-MS/MS operating in multiple reaction monitoring mode (MRM). The amount of parent compound in each sample was calculated by comparing the response of the analyte in the sample to that of a standard curve.

[2] = Oral absorption (p.o. pharmacokinetics, Table 25); format: in vivo, Rats; details: rat, plasma, 10 mg/kg, 10 MPK, 0-8 hr p.o.
[3] = target: NMDA receptor (NR1 + NR2 subunits) (Rattus norvegicus, UniProt P35439+Q00960); test: Two electrode voltage clamp recording from Xenopus laevis oocytes (pH dependence of NMDA antagonism); format: cell-based
Protocol: cRNA was synthesized from linearized template cDNA for rat glutamate receptor subunits according to manufacturer specifications (Ambion). Quality of synthesized cRNA was assessed by gel electrophoresis, and quantity was estimated by spectroscopy and gel electrophoresis. Stage V and VI oocytes were surgically removed from the ovaries of large, well-fed and healthy Xenopus laevis anesthetized with 3-amino-benzoic acid ethyl ester (3 gm/l) as previously described. Clusters of isolated oocytes were incubated with 292 U/ml Worthington (Freehold, N.J.) type IV collagenase or 1.3 mg/ml collagenase (Life Technologies, Gaithersburg, Md.; 17018-029) for 2 hr in Ca^2+-free solution comprised of (in mM) 115 NaCl, 2.5 KCl, and 10 HEPES, pH 7.5, with slow agitation to remove the follicular cell layer. Oocytes were then washed extensively in the same solution supplemented with 1.8 mM CaCl2 and maintained in Barth's solution comprised of (in mM): 88 NaCl, 1 KCl, 2.4 NaHCO3, 10 HEPES, 0.82 MgSO4, 0.33 Ca(NO3)2, and 0.91 CaCl2 and supplemented with 100 μg/ml gentamycin, 10 μg/ml streptomycin, and 10 μg/ml penicillin. Oocytes were manually defolliculated and injected within 24 hrs of isolation with 3-5 ng of NR1 subunit cRNA and 7-10 ng of NR2 cRNA subunit in a 50 nl volume, or 5-10 ng of AMPA or kainate receptor cRNAs in a 50 nl volume, and incubated in Barth's solution at 18° C. for 1-7 d. Glass injection pipettes had tip sizes ranging from 10-20 microns, and were backfilled with mineral oil.
Two electrode voltage-clamp recordings were made 2-7 days post-injection as previously described. Oocytes were placed in a dual-track plexiglass recording chamber with a single perfusion line that splits in a Y-configuration to perfuse two oocytes. Dual recordings were made at room temperature (23° C.) using two Warner OC725B two-electrode voltage clamp amplifiers, arranged as recommended by the manufacturer. Glass microelectrodes (1-10 Megaohms) were filled with 300 mM KCl (voltage electrode) or 3 M KCl (current electrode). The bath clamps communicated across silver chloride wires placed into each side of the recording chamber, both of which were assumed to be at a reference potential of 0 mV. Oocytes were perfused with a solution comprised of (in mM) 90 NaCl, 1 KCl, 10 HEPES, and 0.5 BaCl2; pH was adjusted by addition of 1-3 M NaOH of HCl. Oocytes were recorded under voltage clamp at −40 mV. Final concentrations for control application of glutamate (50 μM) plus glycine (30 μM) were achieved by adding appropriate volumes from 100 and 30 mM stock solutions, respectively. In addition, 10 μM final EDTA was obtained by adding a 1:1000 dilution of 10 mM EDTA, in order to chelate contaminant divalent ions such as Zn^2+. Concentration-response curves for experimental compounds were obtained by applying in successive fashion maximal glutamate/glycine, followed by glutamate/glycine plus variable concentrations of experimental compounds. Dose response curves consisting of 4 to 8 concentrations were obtained in this manner. The baseline leak current at −40 mV was measured before and after recording, and the full recording linearly corrected for any change in leak current. Oocytes with glutamate-evoked responses smaller than 50 nA were not included in the analysis. The level of inhibition by applied experimental compounds was expressed as a percent of the initial glutamate response, and averaged together across oocytes from a single frog. Each experiment consisted of recordings from 3 to 10 oocytes obtained from a single frog. Results from 3-6 experiments were pooled, and the average percent responses at antagonist concentrations were fitted by the equation,
Percent Response=(100−minimum)/(1+([conc]/IC50)^nH)+minimum […]

[4] = iv, 1 mg/kg, 1 MPK, 0-4 hr i.v.
[5] = iv, 1 mg/kg, 1 MPK, 0-6 hr i.v.
[6] = pH 6.9, Table 19, read-out: IC50 at pH 6.9
[7] = pH 7.6, Table 19, read-out: IC50 at pH 7.6
[8] = pH 6.9, Table 20, read-out: IC50 at pH 6.9
[9] = pH 7.6, Table 20, read-out: IC50 at pH 7.6
[10] = pH 6.9, Table 17, read-out: IC50 at pH 6.9
[11] = pH 7.6, Table 17, read-out: IC50 at pH 7.6
[12] = pH 6.9, Table 21, read-out: IC50 at pH 6.9
[13] = pH 7.6, Table 21, read-out: IC50 at pH 7.6

Chain of NMDA receptor (NR1 + NR2 subunits) (Q00960 27-1482, other chains not shown): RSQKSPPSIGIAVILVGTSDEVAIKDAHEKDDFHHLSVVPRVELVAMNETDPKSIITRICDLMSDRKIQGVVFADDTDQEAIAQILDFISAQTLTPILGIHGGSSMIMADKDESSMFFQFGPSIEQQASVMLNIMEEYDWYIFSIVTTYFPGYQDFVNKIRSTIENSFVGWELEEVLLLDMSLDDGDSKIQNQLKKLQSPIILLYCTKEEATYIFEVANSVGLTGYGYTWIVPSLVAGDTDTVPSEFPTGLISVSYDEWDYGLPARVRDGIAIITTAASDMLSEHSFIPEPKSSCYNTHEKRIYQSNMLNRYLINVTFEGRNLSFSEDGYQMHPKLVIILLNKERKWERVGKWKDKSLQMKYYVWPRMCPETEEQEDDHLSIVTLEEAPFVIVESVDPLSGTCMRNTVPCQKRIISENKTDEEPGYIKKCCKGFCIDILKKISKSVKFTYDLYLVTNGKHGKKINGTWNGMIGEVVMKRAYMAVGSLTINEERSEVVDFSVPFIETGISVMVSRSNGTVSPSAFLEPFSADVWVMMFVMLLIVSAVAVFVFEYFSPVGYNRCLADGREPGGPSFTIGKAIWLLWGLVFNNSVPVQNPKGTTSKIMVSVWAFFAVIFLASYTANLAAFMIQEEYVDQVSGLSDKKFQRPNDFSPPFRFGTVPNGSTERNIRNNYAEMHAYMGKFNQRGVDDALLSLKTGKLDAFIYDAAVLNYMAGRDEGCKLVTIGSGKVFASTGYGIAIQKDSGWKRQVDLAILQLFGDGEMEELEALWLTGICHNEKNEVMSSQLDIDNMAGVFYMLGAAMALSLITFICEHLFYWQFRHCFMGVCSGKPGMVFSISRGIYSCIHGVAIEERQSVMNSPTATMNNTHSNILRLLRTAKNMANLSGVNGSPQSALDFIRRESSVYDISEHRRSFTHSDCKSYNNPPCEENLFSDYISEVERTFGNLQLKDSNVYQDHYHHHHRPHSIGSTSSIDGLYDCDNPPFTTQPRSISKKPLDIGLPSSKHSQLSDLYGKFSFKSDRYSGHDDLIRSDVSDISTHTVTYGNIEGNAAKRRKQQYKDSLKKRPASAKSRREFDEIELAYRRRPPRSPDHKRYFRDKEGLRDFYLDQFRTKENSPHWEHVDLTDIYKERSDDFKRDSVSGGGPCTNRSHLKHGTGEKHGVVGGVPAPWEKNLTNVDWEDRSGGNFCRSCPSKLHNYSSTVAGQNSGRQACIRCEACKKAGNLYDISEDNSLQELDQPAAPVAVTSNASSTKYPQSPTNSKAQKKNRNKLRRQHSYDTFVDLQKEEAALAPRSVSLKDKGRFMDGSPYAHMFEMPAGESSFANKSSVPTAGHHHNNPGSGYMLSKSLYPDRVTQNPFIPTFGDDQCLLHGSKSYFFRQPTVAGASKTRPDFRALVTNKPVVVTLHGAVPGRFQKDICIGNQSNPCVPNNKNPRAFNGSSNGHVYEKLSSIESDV

O=C1N(C[C@H](O)COc2ccc(O)cc2)CCN1c1ccc(Cl)cc1 [drawing 795]
Cmax at 30 min ([1]; iv, 3 mg/kg, 3 MPK i.v.): 377 ng/mL

Cc1ccc(N2CCN(C[C@H](O)COc3ccc4[nH]c(=O)oc4c3)CC2)cc1 [drawing 793]
Cmax ([1]; iv, 1 mg/kg, 1 MPK i.v.): 568 ng/mL
AUC(0-t) [1, 4]: 364 ng·h/mL

CS(=O)(=O)Nc1ccc(OC[C@@H](O)CN2CCN(c3ccc(Cl)c(Cl)c3)CC2)cc1
Cmax ([1]; iv, 3 mg/kg, 3MPK i.v.): 1070 ng/mL
AUC(0-t) ([1]; iv, 3 mg/kg, 3MPK, 0-4 hr i.v.): 2350 ng·h/mL

O=c1[nH]c2ccc(OC[C@@H](O)CN3CCN(c4ccc(F)c(F)c4)CC3)cc2[nH]1 [drawing 787]
Cmax ([1]; iv, 1 mg/kg, 1 MPK i.v.): 241 ng/mL
AUC(0-t) [1, 5]: 452 ng·h/mL

Cc1ccc(N2CCN(C[C@H](O)COc3ccc4[nH]c(=O)oc4c3)CC2)cc1 [drawing 813]
Cmax [2]: 57.8 ng/mL
Tmax [2]: 6.7 h
bioavailability ([2]; read-out: % Absorbed (% F)): 7.9%
AUC(0-t) ([2]; read-out: AUC (0-last h) p.o.): 284 ng·h/mL

NC(=O)Nc1ccc(OC[C@@H](O)CN2CCN(c3ccc(Cl)cc3)CC2)cc1 [drawing 786]
Cmax ([1]; iv, 1 mg/kg, 1 MPK i.v.): 252 ng/mL
AUC(0-t) [1, 4]: 1030 ng·h/mL

O=C(COc1ccc2[nH]c(=O)oc2c1)N1CCN(c2ccc(Cl)c(Cl)c2)CC1 [drawing 797]
Cmax at 15 min ([1]; ip, 10 mg/kg, 10 MPK i.p., 15 m): 960 ng/mL

Oc1ccc(OC[C@@H](O)CN2CCN(c3ccc(Cl)cc3)CC2)cc1 [drawing 791]
Cmax ([1]; iv, 1 mg/kg, 1 MPK i.v.): 193 ng/mL
AUC(0-t) [1, 4]: 187 ng·h/mL

O=c1[nH]c2ccc(OC[C@@H](O)CN3CCN(c4ccc(Cl)cc4)CC3)cc2o1 [drawing 792]
Cmax ([1]; iv, 1 mg/kg, 1 MPK i.v.): 288 ng/mL
AUC(0-t) [1, 4]: 217 ng·h/mL

CS(=O)(=O)Nc1ccc(OC[C@@H](O)CN2CCN(c3ccc(F)c(F)c3)CC2)cc1 [drawing 789]
Cmax at 30 min ([1]; ip, 60 mg/kg, 60 MPK): 13400 ng/mL
Cmax at 2 hr ([1]; ip, 60 mg/kg, 60 MPK, 2 hr): 13100 ng/mL

Oc1ccc(OC[C@H](O)CN2CCN(c3ccc(Cl)cc3)CC2)cc1
IC50 [3, 6]: 80 nM
IC50 [3, 7]: 814 nM

O=C(COc1ccc2[nH]c(=O)[nH]c2c1)N1CCN(c2ccc(Cl)c(Cl)c2)CC1 [drawing 796]
Cmax ([1]; iv, 1 mg/kg, 1 MPK i.v.): 576 ng/mL
AUC(0-t) [1, 5]: 1100 ng·h/mL

Oc1ccc(OC[C@@H](O)CSc2nc3cc(Cl)c(Cl)cc3[nH]2)cc1 [drawing 799]
Cmax at 30 min ([1]; iv, 3 mg/kg, 3 MPK i.v.): 413 ng/mL

COc1ccc(N2CCN(C[C@@H](O)COc3ccc(O)cc3)CC2)cc1
IC50 [3, 6]: 562 nM
IC50 [3, 7]: 9740 nM

NC(=O)Nc1ccc(OC[C@H](O)CN2CCN(c3ccc(Cl)cc3)CC2)cc1
IC50 [3, 8]: 19 nM
IC50 [3, 9]: 60 nM

COC(=O)Nc1ccc(OCCCN2CCN(c3ccc(F)cc3)CC2)cc1
IC50 [3, 8]: 1540 nM
IC50 [3, 9]: 16200 nM

CS(=O)(=O)Nc1ccc(OCC(O)CNCCNc2ccc(F)c(F)c2)cc1 (stereo not drawn)
IC50 [3, 10]: 108 nM
IC50 [3, 11]: 199 nM

Cc1ccc(N2CCN(C[C@H](O)COc3ccc4c(c3)CCC(=O)N4)CC2)cc1 [drawing 790]
Cmax ([1]; iv, 1 mg/kg, 1 MPK i.v.): 464 ng/mL
AUC(0-t) [1, 5]: 347 ng·h/mL

O=C(CCc1ccc(O)cc1)NCCNc1ccc(Cl)c(Cl)c1
IC50 [3, 12]: 210 nM
IC50 [3, 13]: 339 nM

Oc1ccc(OCC(O)CN2CCN(c3ccc(Br)cc3)CC2)cc1 (stereo not drawn)
IC50 [3, 6]: 73 nM
IC50 [3, 7]: 204 nM

Cc1ccc(N2CCN(CC(O)COc3ccc(O)cc3)CC2)cc1C (stereo not drawn)
IC50 [3, 6]: 1500 nM
IC50 [3, 7]: 5790 nM

O=c1[nH]c2ccc(OC[C@@H](O)CSc3nc4cc(Cl)c(Cl)cc4[nH]3)cc2o1 [drawing 798]
Cmax at 30 min ([1]; iv, 3 mg/kg, 3 MPK i.v.): 398 ng/mL

CS(=O)(=O)Nc1ccc(CCC(=O)N2CCN(c3ccc(F)c(F)c3)CC2)cc1
IC50 [3, 12]: 2200 nM
IC50 [3, 13]: 8400 nM

CS(=O)(=O)Nc1ccc(OCC(O)CNCCNc2ccccc2)cc1 (stereo not drawn)
IC50 [3, 10]: 55 nM
IC50 [3, 11]: 133 nM

CS(=O)(=O)Nc1ccc(OCC(O)CN2CCN(c3ccc(Cl)cc3)CC2)cc1 (stereo not drawn)
IC50 [3, 10]: 32 nM
IC50 [3, 11]: 270 nM

N#Cc1ccc(N2CCN(C[C@@H](O)COc3ccc(O)cc3)CC2)cc1
IC50 [3, 6]: 460 nM
IC50 [3, 7]: 4370 nM

N#Cc1ccccc1N1CCN(C[C@@H](O)COc2ccc(O)cc2)CC1
IC50 [3, 6]: 3210 nM
IC50 [3, 7]: 8330 nM

Oc1ccc(OC[C@H](O)CN2CCN(c3ccc(F)cc3)CC2)cc1
IC50 [3, 6]: 87 nM
IC50 [3, 7]: 529 nM

Cc1ccc(N2CCN(CC(O)COc3ccc(O)cc3)CC2)cc1 (stereo not drawn)
IC50 [3, 6]: 70 nM
IC50 [3, 7]: 260 nM

Cc1cccc(N2CCN(C[C@@H](O)COc3ccc(O)cc3)CC2)c1
IC50 [3, 6]: 341 nM
IC50 [3, 7]: 1740 nM

Oc1ccc(OC[C@H](O)CN2CCN(c3ccc(F)c(F)c3)CC2)cc1
IC50 [3, 6]: 50 nM
IC50 [3, 7]: 272 nM

Oc1ccc(OC[C@H](O)CN2CCC(O)(c3ccccc3)CC2)cc1
IC50 [3, 6]: 191 nM
IC50 [3, 7]: 298 nM

CS(=O)(=O)Nc1ccc(CCC(=O)NC/C=C/c2ccc(Cl)c(Cl)c2)cc1
IC50 [3, 12]: 10 nM
IC50 [3, 13]: 70 nM

NC(=O)Nc1ccc(OC[C@@H](O)CN2CCN(c3ccc(Cl)cc3)C2=O)cc1 [drawing 794]
Cmax ([1]; iv, 1 mg/kg, 1 MPK i.v.): 715 ng/mL
AUC(0-t) [1, 5]: 787 ng·h/mL

CS(=O)(=O)Nc1ccc(OCC(O)CN2CCN(c3ccc(O)cc3)CC2)cc1 (stereo not drawn)
IC50 [3, 10]: 2400 nM
IC50 [3, 11]: 28000 nM

C=C(COc1ccc(NC(N)=O)cc1)CN1CCN(c2ccc(F)c(F)c2)CC1
IC50 [3, 8]: 557 nM
IC50 [3, 9]: 10400 nM

CCNC(=O)Nc1ccc(OCCCN2CCN(c3ccc(F)cc3)CC2)cc1
IC50 [3, 8]: 3030 nM
IC50 [3, 9]: 15700 nM

Reference: US20110160223A1, “NMDA Receptor Antagonists for the Treatment of Neuropsychiatric Disorders” (priority 2008, published 2011)
